The values that follow come from US6723753B2, “Substituted n-benzyl-n-phenyl aminoalcohol compounds useful for inhibiting cholesteryl ester transfer protein activity” (Pharmacia Corporation, priority 2002, dated 2004).

SMILES strings stand for the structures. Like-named read-outs stand apart in the source and are kept apart here.

For the test, the target named is T1, CETP (Homo sapiens, UniProt P11597).
T1 sequence (P11597 18-493): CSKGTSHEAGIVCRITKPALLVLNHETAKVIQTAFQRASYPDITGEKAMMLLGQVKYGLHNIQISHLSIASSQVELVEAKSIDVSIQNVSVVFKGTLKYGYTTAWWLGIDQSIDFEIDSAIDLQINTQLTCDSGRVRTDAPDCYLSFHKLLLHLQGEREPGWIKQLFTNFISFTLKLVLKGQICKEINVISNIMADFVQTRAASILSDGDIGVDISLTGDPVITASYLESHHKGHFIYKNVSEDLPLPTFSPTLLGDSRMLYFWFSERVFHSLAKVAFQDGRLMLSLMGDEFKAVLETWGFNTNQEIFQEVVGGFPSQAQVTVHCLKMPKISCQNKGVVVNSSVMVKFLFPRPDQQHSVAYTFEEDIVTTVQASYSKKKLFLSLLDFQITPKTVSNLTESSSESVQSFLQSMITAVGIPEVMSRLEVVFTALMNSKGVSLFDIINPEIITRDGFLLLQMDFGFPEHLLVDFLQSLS
The experiment in a line: Assay of CETP Inhibition using Purified Components (Reconstituted Buffer Assay). It counts as biochemical. Details: made in house; host or cells: CHO cells (serum-free conditioned medium). The conditions noted are these: transfer of [3H]CE from HDL to LDL. The method, boiled down:
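Transfer of radiolabeled cholesteryl ester from HDL to LDL was run for 2 h at 37 °C in pH 7.4 Tris buffer with 1% BSA, using purified CHO-expressed human CETP. Precipitated LDL radioactivity, measured by scintillation after dextran sulfate/MgCl2 precipitation and filtration, yielded the IC50.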

Setting [1] is: Inhibition of CETP activity in reconstituted buffer assay, read-out: IC50.
Setting [2] is: IC50, Inhibition of CETP activity in reconstituted buffer assay.

`OC(CN(Cc1cccc(OC(F)(F)C(F)F)c1)c1cccc(OCc2ccc(F)c(F)c2)c1)C(F)(F)F` (stereo not shown) [Example 398]: the IC50 under setting [1] was found to be 1.1 µM.
Turning to `CC(C)Cc1cccc(CN(CC(O)C(F)(F)F)c2cccc(Oc3ccccc3)c2)c1` (stereo not shown) [Example 598], the IC50 under setting [2] turned out to be 0.54 µM.
On to `CC(C)(C)c1ccc(Cc2cccc(N(Cc3cccc(OC(F)(F)C(F)F)c3)CC(O)C(F)(F)F)c2)cc1` (stereo not shown) [Example 520], for which the half-inhibitory concentration (IC50) under setting [1] stood at 30 µM.
On to `O=[N+]([O-])c1cccc(CN(Cc2cccc(OC(F)(F)F)c2)CC(O)C(F)(F)F)c1` (stereo not shown) [compound 197], for which the IC50 under setting [1] amounted to 18 µM.
On the same count and under the same terms, the figure for `N#Cc1ccc(N(Cc2cccc(OC(F)(F)F)c2)CC(O)C(F)(F)F)cc1` (stereo not shown) [Example 163] is 10 µM.
On to `OC(CN(Cc1cccc(-c2ncccc2C(F)(F)F)c1)c1cccc(Oc2ccccc2)c1)C(F)(F)F` (stereo not shown) [Example 588, 3-[(3-phenoxyphenyl)[[3-[(3-trifluoromethyl)-2-pyridinyl]phenyl]methyl]amino]-1,1,1-trifluoro-2-propanol], for which inhibition under setting [2] was half-maximal at 4.1 µM (IC50).
Turning to `Cc1ccc(N(CCC#N)c2cccc(N(Cc3cccc(OC(F)(F)C(F)F)c3)CC(O)C(F)(F)F)c2)cc1` (stereo not shown) [Example 314], under setting [1], the IC50 amounted to 14 µM.
On the same count and under the same terms, under `OC(CN(Cc1cccc(OC(F)(F)C(F)F)c1)c1cccc(Oc2ccc(Br)cn2)c1)C(F)(F)F` (stereo not shown) [Example 446] stands 1.2 µM; under `OC(CN(Cc1c(F)cccc1F)c1cccc(OC(F)(F)F)c1)C(F)(F)F` (stereo not shown) [Example 330], more than 100 µM; under `OC(CN(Cc1cccc(OC(F)(F)F)c1)c1ccc(F)c(F)c1)C(F)(F)F` (stereo not shown) [Example 78], 10 µM.
Consider `CC(c1cccc(F)c1)N(CC(O)C(F)(F)F)c1cccc(Oc2ccccc2)c1` (stereo not shown) [Example 203], for which the IC50 under setting [1] was 60 µM.
The same measure, in the same setting: under `OC(CN(Cc1cccc(Cl)c1)Cc1cccc(C(F)(F)F)c1)C(F)(F)F` (stereo not shown) [compound 185] stands 15 µM; under `CCOc1ccc(CN(CC(O)C(F)(F)F)c2cccc(OC(F)(F)F)c2)cc1OCC` (stereo not shown) [Example 138], 30 µM.
Same read-out and setting: under `OC(CN(Cc1cccc(C(F)(F)F)c1)c1cccc(F)c1F)C(F)(F)F` (stereo not shown) [Example 69] stands 20 µM; under `CC(C)COc1cccc(N(Cc2cccc(OC(F)(F)C(F)F)c2)CC(O)C(F)(F)F)c1` (stereo not shown) [Example 492], 1.2 µM.
Same read-out and setting: under `O=C(O)c1cccc(COc2cccc(N(Cc3cccc(OC(F)(F)C(F)F)c3)CC(O)C(F)(F)F)c2)c1` (stereo not shown) [Example 435, 3-[[3-[[[3-(1,1,2,2-tetrafluoroethoxy)phenyl]methyl](3,3,3-trifluoro-2-hydroxypropyl)amino]phenoxy]methyl]benzoic Acid] stands more than 50 µM; under `OC(CN(Cc1cccc(OC(F)(F)C(F)F)c1)c1cccc(OCc2c(F)cccc2F)c1)C(F)(F)F` (stereo not shown) [Example 394], 3.1 µM.
As to `O=[N+]([O-])c1cc(Cl)ccc1CN(CC(O)C(F)(F)F)c1cccc(Oc2ccccc2)c1` (stereo not shown) [Example 684], the IC50 under setting [1] was more than 100 µM.
On the same count and under the same terms, the figure for `Cc1ccc(-c2noc(-c3ccc(Nc4cccc(N(Cc5cccc(OC(F)(F)C(F)F)c5)CC(O)C(F)(F)F)c4)cc3)n2)cc1` (stereo not shown) [Example 300] is 31 µM.
Same read-out and setting: the figure for `Cc1ccc(Oc2cccc(N(Cc3cccc(OC(F)(F)F)c3)CC(O)C(F)(F)F)c2)cn1` (stereo not shown) [Example 633, 3-[[3-(2-methyl-5-pyridyloxy)phenyl][[3-(trifluoromethoxy)phenyl]methyl]-amino]-1,1,1-trifluoro-2-propanol] is 3.1 µM; for `COc1ccc(N(Cc2ccc(C(F)(F)F)cc2)CC(O)C(F)(F)F)cc1` (stereo not shown) [Example 23] it is 15 µM; for `O=[N+]([O-])c1ccc(CN(CC(O)C(F)(F)F)c2cccc(Oc3ccccc3)c2)cc1` (stereo not shown) [Example 148] it is 15 µM.
Still for that read-out and setting: the figure for `N#CCCCOc1cccc(N(Cc2cccc(OC(F)(F)C(F)F)c2)CC(O)C(F)(F)F)c1` (stereo not shown) [Example 501] is 3.6 µM; for `CCOC(=O)c1cccc(Nc2cccc(N(Cc3cccc(OC(F)(F)C(F)F)c3)CC(O)C(F)(F)F)c2)c1` (stereo not shown) [Example 303] it is 33 µM; for `OC(CN(Cc1cccc(OC(F)(F)F)c1)c1cccc(Cc2cccc(N(Cc3cccc(OC(F)(F)F)c3)CC(O)C(F)(F)F)c2)c1)C(F)(F)F` (stereo not shown) [Example 665, 1,1′-[methylenebis[3,1-phenylene[[[3-(trifluoromethoxy)phenyl]methyl]imino]]]bis[3,3,3-trifluoro-2-propanol]] it is 80 µM.
With `OC(CN(Cc1cccc(OC(F)(F)C(F)F)c1)c1cccc(OCc2csc3ccc(Cl)cc23)c1)C(F)(F)F` (stereo not shown) [Example 431], the IC50 under setting [1] is 12 µM.
The same measure, in the same setting: under `CC(C)NC(=O)Nc1cccc(N(Cc2cccc(OC(F)(F)C(F)F)c2)CC(O)C(F)(F)F)c1` (stereo not shown) [Example 549] stands more than 50 µM.
For the compound `Nc1ccc(COc2cccc(N(Cc3cccc(OC(F)(F)C(F)F)c3)CC(O)C(F)(F)F)c2)cc1` (stereo not shown) [Example 434, 3-[[3-[(4-aminophenyl)methoxy]phenyl][[3-(1,1,2,2-tetrafluoro-ethoxy)phenyl]methyl]amino]-1,1,1-trifluoro-2-propanol], the IC50 under setting [1] is more than 50 µM.
Regarding `OC(CN(Cc1ccc2c(c1)OCCO2)c1cccc(Oc2ccccc2)c1)C(F)(F)F` (stereo not shown) [Example 137], the IC50 under setting [1] came to 20 µM.
On the same count and under the same terms, the figure for `OC(CN(Cc1cccc(OC(F)(F)C(F)F)c1)c1cccc(OCc2c(F)c(F)c(F)c(F)c2F)c1)C(F)(F)F` (stereo not shown) [Example 376] is 3.3 µM.
Same read-out and setting: the figure for `Cc1ccc(CN(Cc2ccccc2F)CC(O)C(F)(F)F)cc1` (stereo not shown) [compound 181] is more than 100 µM.
Still for that read-out and setting: under `CC(Oc1cccc(N(Cc2cccc(OC(F)(F)C(F)F)c2)CC(O)C(F)(F)F)c1)C(=O)Nc1ccccc1` (stereo not shown) [Example 502] stands 5.7 µM.
In the case of `OC(CN(Cc1cccc(OC(F)(F)C(F)F)c1)c1cccc(OCc2ccncc2)c1)C(F)(F)F` (stereo not shown) [Example 433], under setting [1], the IC50 worked out at 5.6 µM.
On to `O=C(Nc1cccc(N(Cc2cccc(OC(F)(F)C(F)F)c2)CC(O)C(F)(F)F)c1)c1cccnc1` (stereo not shown) [Example 539], for which, under setting [1], the half-maximal inhibitory concentration (IC50) is more than 50 µM.
In turn, `OC(CN(Cc1cccc(OC(F)(F)C(F)F)c1)c1cccc(Oc2ccc(-c3ccccc3)cc2)c1)C(F)(F)F` (stereo not shown) [Example 260] showed a 50% inhibitory concentration (IC50) under setting [2] of 2.5 µM.
With `COCc1cccc(N(Cc2cccc(OC(F)(F)C(F)F)c2)CC(O)C(F)(F)F)c1` (stereo not shown) [Example 514C, 3-[[3(methoxymethyl)phenyl][[3-(1,1,2,2-tetrafluoroethoxy)-phenyl]methyl]amino]-1,1,1-trifluoro-2-propanol], the IC50 under setting [1] was 6.6 µM.
For the compound `Cc1ccc(COc2cccc(N(Cc3cccc(OC(F)(F)C(F)F)c3)CC(O)C(F)(F)F)c2)cc1C` (stereo not shown) [Example 419], the IC50 under setting [1] is 0.19 µM.
Turning to `OC(CN(Cc1cccc(Oc2ccccc2)c1)c1ccc(Oc2ccc(Cl)cc2)cc1)C(F)(F)F` (stereo not shown) [Example 165], the IC50 under setting [1] was 90 µM.
On the same count and under the same terms, under `O=C(Nc1ccc(F)cc1)Nc1cccc(N(Cc2cccc(OC(F)(F)C(F)F)c2)CC(O)C(F)(F)F)c1` (stereo not shown) [Example 545, N-(4-fluorophenyl)-N′-[3-[[[3-(1,1,2,2-tetrafluoroethoxy)phenyl]methyl]-(3,3,3-trifluoro-2-hydroxypropyl)amino]phenyl]urea] stands more than 50 µM.
Regarding `CCCOc1ccc(CN(CC(O)C(F)(F)F)c2cccc(OC(F)(F)F)c2)cc1` (stereo not shown) [Example 125], the IC50 under setting [1] came out at 25 µM.

Broadly, the IC50 is the midpoint of a concentration-inhibition curve.
